Data published in US20080063704A1, “Stable gabapentin compositions” (priority 2004, published 2008).

Key:
Type in all cases: physicochemical
[1] = Pre-formulation excipient compatibility study: Appearance
Text: (§1) All the ingredients were passed through 20 mesh screen and blended together. The results of all the pre-formulation compatibility studies are given in Tables 25 to 39, including comparative results for the drug substance (Table 39) and UK reference product (Table 38) as controls.
(§2) Aim: To carry out preformulation excipient compatibility studies for Gabapentin capsules
(§3) Binary mixtures to be evaluated (with and without water as necessary):
(§4) 1. Drug and diluents (1:0.5)
(§5) 2. Drug and lubricants(1:0.1)
(§6) 3. Drug and solubilizer (1:0.001)
(§7) 4. Proposed formulation from the in vitro formulation trials to confirm the extent of interactions and identify suitably stable formulations.
(§8) Where humidity controls are not available a defined amount of water may be added to the samples. Storage of samples was in petridishes and in stoppered glass vials.
(§9) The following tests were performed at each interval:
(§10) The following tests were performed at 14 and 28 day intervals.

[2] = Pre-formulation excipient compatibility study: HPLC assay
Text: as §1, §2, §3, §4, §5, §6, §7, §8, §9
2. HPLC assay (as for HPLC related substances assay but calibrated for gabapentin resolution rather than for related substances)

[3] = Pre-formulation excipient compatibility study: HPLC assay for related substances
Text: HPLC Assay for Related Substances
as §1, §2, §3, §4, §5, §6, §7
Significant degradation is defined as
1. >0.5% w/w formation of lactam degradation product at conditions up to 40° C./75% RH.
2. Formation of other degradants at levels >0.1% w/w.
3. Greater relative instability of mixture or formulation to Gabapentin drug substance and Neurotonin capsules.
as §8, §10
3. HPLC assay for related substances

NCC1(CC(=O)O)CCCCC1 [Gabapentin]
Description ([1]; 25° C./60% RH, 3 days): White | Description ([1]; 25° C./60% RH, 7 days): White | Description ([1]; 25° C./60% RH, 14 days): White | Description ([1]; 25° C./60% RH, 28 days): White | Description ([1]; 40° C./75% RH, 3 days): White | Description ([1]; 40° C./75% RH, 7 days): White | Description ([1]; 40° C./75% RH, 14 days): White | Description ([1]; 40° C./75% RH, 28 days): White | Description ([1]; 50° C., 3 days): White | Description ([1]; 50° C., 7 days): White | Description ([1]; 50° C., 14 days): White | Description ([1]; 50° C., 28 days): White | Description ([1]; Initial): White | Assay ([2]; 25° C./60% RH, 7 days): 98.6% | Assay ([2]; 25° C./60% RH, 14 days): 98.6% | Assay ([2]; 25° C./60% RH, 28 days): 98.51% | Assay ([2]; 40° C./75% RH, 7 days): 98.53% | Assay ([2]; 40° C./75% RH, 14 days): 98.4% | Assay ([2]; 40° C./75% RH, 28 days): 97.79% | Assay ([2]; 50° C., 7 days): 98.5% | Assay ([2]; 50° C., 14 days): 98.5% | Assay ([2]; 50° C., 28 days): 98.1% | Assay ([2]; Initial): 99.4% | Impurities a) Lactam content ([3]; 25° C./60% RH, 14 days): Nil | Impurities b) Single largest individual Impurities ([3]; 25° C./60% RH, 14 days): Nil | Impurities c) Total other Impurities ([3]; 25° C./60% RH, 14 days): Nil | Impurities d) Total Impurities ([3]; 25° C./60% RH, 14 days): Nil | Impurities a) Lactam content ([3]; 25° C./60% RH, 28 days): Nil | Impurities b) Single largest individual Impurities ([3]; 25° C./60% RH, 28 days): Nil | Impurities c) Total other Impurities ([3]; 25° C./60% RH, 28 days): Nil | Impurities d) Total Impurities ([3]; 25° C./60% RH, 28 days): Nil | Impurities a) Lactam content ([3]; 40° C./75% RH, 14 days): Nil | Impurities b) Single largest individual Impurities ([3]; 40° C./75% RH, 14 days): Nil | Impurities c) Total other Impurities ([3]; 40° C./75% RH, 14 days): Nil | Impurities d) Total Impurities ([3]; 40° C./75% RH, 14 days): Nil | Impurities a) Lactam content ([3]; 40° C./75% RH, 28 days): Nil | Impurities b) Single largest individual Impurities ([3]; 40° C./75% RH, 28 days): Nil | Impurities c) Total other Impurities ([3]; 40° C./75% RH, 28 days): Nil | Impurities d) Total Impurities ([3]; 40° C./75% RH, 28 days): Nil | Impurities a) Lactam content ([3]; 50° C., 14 days): 0.004% | Impurities b) Single largest individual Impurities ([3]; 50° C., 14 days): Nil | Impurities c) Total other Impurities ([3]; 50° C., 14 days): Nil | Impurities d) Total Impurities ([3]; 50° C., 14 days): Nil | Impurities a) Lactam content ([3]; 50° C., 28 days): 0.004% | Impurities b) Single largest individual Impurities ([3]; 50° C., 28 days): Nil | Impurities c) Total other Impurities ([3]; 50° C., 28 days): Nil | Impurities d) Total Impurities ([3]; 50° C., 28 days): Nil | Impurities a) Lactam content ([3]; Initial): Nil | Impurities b) Single largest individual Impurities ([3]; Initial): Nil | Impurities c) Total other Impurities ([3]; Initial): Nil | Impurities d) Total Impurities ([3]; Initial): Nil
